# What was measured:
# [1] = test system: hypercholesterolaemia in patients following transplantation; test: Clinical study of the Agent in post-transplant patients on immunosuppressive therapy; assay type: in vivo, human
# Procedure: Trial Design This is a multicenter, randomized, double-blind, parallel-group clinical trial. […] Patients who have had their dose titrated up to 40 mg may have their dose titrated back down to 20 mg at the investigator's discretion.
# [2] = test system: human hepatocytes; test: Metabolism of [14C]-labelled Agent by human hepatocytes; assay type: in vitro ADME; details: human hepatocytes in culture, 0-48 hours
# Procedure: Cultures were terminated with ethanol after 0, 6, 24 and 48 hours of incubation and stored at approximately −20° C. until analysed. The metabolic competence of the hepatocytes was confirmed at the time of incubation by examining their ability to metabolise [^14C]-ethoxycoumarin (25 μM); aliquots were removed into methanol at the same time points as for the test compound.
# Following incubation of [^14C]-ZD4522 with hepatocytes, metabolite profiles were generated by High Performance Liquid Chromatography (HPLC). The ability of hepatocytes to metabolise [^14C]-ethoxycoumarin was confirmed by HPLC.
# [3] = test system: mixed hyperlipidaemia and hypertriglyceridaemia in patients; test: Clinical study of the Agent dosed with a fibrate drug; assay type: in vivo, human
# [4] = test system: heart transplant patients; details: cited from earlier work
# [5] = test system: patients; details: cited from earlier work
# [6] = test system: cytochrome P450 enzymes, in particular 3A4; details: cited from earlier work
# [7] = patients undertaking immunosuppressive therapy
smiles,measurement,setting,value
"CC(C)c1nc(N(C)S(C)(=O)=O)nc(-c2ccc(F)cc2)c1/C=C/[C@@H](O)C[C@@H](O)CC(=O)O [Agent, (E)-7-[4-(4-fluorophenyl)-6-isopropyl-2-[methyl(methylsulfonyl)amino]pyrimidin-5-yl](3R,5S)-3,5-dihydroxyhept-6-enoic acid]",treating hypercholesterolaemia in patients following transplantation,[1]; patients following transplantation,extremely effective
same,"level of cholesterol lowering compared with what was previously achieved, such as by pravastatin",[1]; [7],much higher levels of cholesterol lowering
same,side effects of concomitant dosing of the Agent and immunosuppressive drug(s),[1]; [7],without any clinically significant side effects
same,metabolism of the Agent by whole hepatocytes,[2],not significantly metabolised
same,treating mixed hyperlipidaemia and hypertriglyceridaemia when combined with a fibrate drug,[3]; combined with a fibrate drug,extremely effective
same,side effects of concomitant dosing of the Agent and the fibrate drug,[3]; patients also taking a fibrate drug,without any clinically significant side effects
"CC[C@H](C)C(=O)O[C@H]1C[C@@H](C)C=C2C=C[C@H](C)[C@H](CC[C@@H]3C[C@@H](O)CC(=O)O3)[C@H]21 [Lovastatin, lovastatin]",cholesterol levels in heart transplant patients,[4],lower cholesterol levels
CC(C)c1c(C(=O)Nc2ccccc2)c(-c2ccccc2)c(-c2ccc(F)cc2)n1CC[C@@H](O)C[C@@H](O)CC(=O)O [atorvastatin],patients with clinically important (>3 times ULN) elevations in serum ALT,"[5]; low doses of atorvastatin, European SmPC",0.8%
Cc1ccc(C)c(OCCCC(C)(C)C(=O)O)c1 [gemfibrozil],patients with myositis-flu like syndrome,[5]; gemfibrozil when a statin is also administered,5%
CC[C@H](C)C(=O)O[C@H]1C[C@H](O)C=C2C=C[C@H](C)[C@H](CC[C@@H](O)C[C@@H](O)CC(=O)O)[C@H]21 [pravastatin],rate of metabolism by P450,[6],sufficiently low
